Like-named read-outs stand apart in the source and are kept apart here. Bounds are passed on as bounds.

The record followed here is US4216221A, “1,3-Disubstituted (2-thio)ureas” (U C B, Societe Anonyme, priority 1977, dated 1980).

Data set [1] in a line: spinal fixation time (spinal section 35 minutes after onset of asymmetry). Format: in vivo, rat. An excerpt: (b) The action on mnemic processes is also shown by the reduction of the spinal fixation time, a test which has been described in literature (T. J. CHAMBERLAIN et al., J.Neuro-Physiol.26, (1963,no. 4), 662-673; C. GIURGEA and F. MOURAVIEFF-LESUISSE, Arch.Int.Pharmacodyn.Therap.191, (1971,no. 2), 279) as an elementary memory model and which provides pharmacological reactivity in good correlation with clinical physiopathology. In the rat, after unilateral lesion of the cerebellum, there is a postural asymmetry of the hind paws. This asymmetry may persist, even after spinal section, if the animal has passed a sufficiently long time in this position.
This time, which is called the spinal fixation time, is 45 minutes under the experimental conditions applied here.
On the other hand, if the spinal section is performed before the expiry of this period of time, for example 35 minutes after the onset of the asymmetry, the latter disappears.
No animal treated with placebos retains asymmetry under these conditions.
Inversely, any product which allows the rats to retain the asymmetry (thus effecting spinal fixation) when the spinal section is performed after 35 minutes, is considered to be active.
The compounds were all tested at a dosage of […]. The minimum active doses were not sought, except for compound No. 1 and for piracetam. […] By "number of animals" is to be understood the number of animals which responded positively to the test, in relation to the number of animals tested at the indicated dose: […]

Data set [2] is described as follows: active avoidance test (memory retention; paw withdrawal reaction threshold). Format: in vivo, rat. Particulars: for minimal effective dose: sc. The source says: The pressure at which the withdrawal reaction takes place is called the reaction threshold. This threshold is expressed by the figure read on a scale graduated in cm of the apparatus used (Analgesy-meter Ugo Basile, Milan) and thus corresponds to the minimum pressure which brings about withdrawal when applied to the animal's paw.

A short description of data set [3]: Toxicity by intraperitoneal administration (Irwin's test). Format: in vivo. Particulars: for Dose mg/kg (dose which brings about the death of one animal out of eight in Irwin's test): mouse. The source says:
The compounds tested have a remarkably low toxicity.
*Dose which brings about the death of one animal out of eight in Irwin's
test (S. IRWIN, Gordon Research Conference on Medicinal Chemistry, Colby
Junior College, New London, 1959).

Data set [4] is described as follows: Protection against aggressions of the hypoxic type (mortality induced by oxydipentonium chloride). Format: in vivo, mice. Particulars: Mus musculus, ip, 1 h, read-out: Proportion of survivors, Animals treated. The method, then: Protection against aggressions of the hypoxic type was shown by a reduction of mortality induced by a curarizer, the action time of which is short, namely oxydipentonium chloride (Brevatonal). At the doses used, this curarizer brings about respiratory depression which, in turn, gives rise to a hypoxi-hypercapnic syndrome.
A compound capable of protecting the brain during this short period of hypoxia ensures survival. The compounds are administered to groups of 10 mice one hour before the injection of the curarizer. At the same time, a control group of 10 mice received physiological salt solution before the curarizer. This test has also been developed in our laboratories (see S. LEVIS et al., Arch.Int.Pharmacodyn.Therap.93, (1953,no. 1), 46-54).

Data set [5] in a line: Toxicity when administered intravenously or orally (LD50). Particulars: in vivo, rat. The source says:
Furthermore, in the rat, the compounds tested also have a low toxicity when administered intravenously or orally, as shown by the results given in the following Table V: […]

The mark [6] stands for this setting: ip, 35 min, rat, intraperitoneal, 0.32 mM/kg, read-out: Number of animals which responded positively to the test, in relation to the number of animals tested (converted).
[7] abbreviates: rat, subcutaneous, tested 24 hours later, read-out: Active dose mM/kg (minimum dose lowering the stimulus below 11 graduations; mM = millimole).
The mark [8] stands for this setting: rat, subcutaneous, tested 24 hours later, read-out: Active dose mg/kg (minimum dose lowering the stimulus below 11 graduations).
The mark [9] stands for this setting: mice, intraperitoneal, 0.1 mM/kg, one hour before the curarizer, control animals 3/20 (1), 1/10 (2, 18, 26), 0/10 (14, 32), 2/10 (28).
[10] abbreviates: Rattus norvegicus, ip, read-out: Active dose mM/kg (minimum active dose).
Where [11] appears, read: Rattus norvegicus, ip, read-out: Active dose mg/kg (minimum active dose).
[12] abbreviates: iv, i.v., read-out: LD50 mg/kg (rat).
[13] abbreviates: iv, i.v., read-out: LD50 - mM/kg.
Setting [14] is: po, per os, read-out: LD50 mg/kg (rat).
Setting [15] is: po, per os, read-out: LD50 - mM/kg.

In the case of `CCC(CNC(=O)NCC(CC)N1CCCC1=O)N1CCCC1=O` (stereo not shown) [compound 22], the responders at 320 µM, 320 µmol/kg in data set [1] (setting [6]) was 71.4%. The minimal effective dose in data set [2] (setting [7]) stood at 0.02 µmol/kg. Moreover, the minimal effective dose in data set [2] (setting [8]) was 0.0067 mg/kg. In data set [3], the “Dose mM/kg - mouse (dose which brings about the death of one animal out of eight in Irwin's test)” value (“Dose mM/kg - mouse” for short) is more than 3 mM/kg and the “Dose mg/kg (dose which brings about the death of one animal out of eight in Irwin's test)” value (“Dose mg/kg” for short) is reported as more than 1014 mg/kg.
As to `CC1CCN(CNC(=O)NCN2CCC(C)C2=O)C1=O` (stereo not shown) [compound 34, 1,3-bis[(3-methyl-2-oxo-1-pyrrolidino)methyl]-urea], in data set [1] (setting [6]), the responders at 320 µM, 320 µmol/kg was 50%. In addition, in data set [3], the “Dose mM/kg - mouse” value is more than 6 mM/kg and the “Dose mg/kg” value is given as more than 1692 mg/kg.
For the molecule `O=C(NCN1CCCCCC1=O)NCN1CCCCCC1=O` [Compound No. 4, 1,3-bis[(hexahydro-2-oxo-1H-azepin-1-yl)methyl]-urea], the responders at 320 µM, 320 µmol/kg in data set [1] (setting [6]) was 66.7%. For the same molecule, the figures for the minimal effective dose in data set [2] (setting [7]) and in data set [2] (setting [8]) were 0.005 µmol/kg and 0.0015 mg/kg, respectively. Moreover, the “Dose mM/kg - mouse” value in data set [3] was 3 mM/kg. In addition, in data set [3], the “Dose mg/kg” value is listed as 930 mg/kg.
Consider `CC1CC(=O)N(CNC(=O)NCN2C(=O)CC(C)C2C)C1C` (stereo not shown) [compound 14, 1,3-bis[(4,5-dimethyl-2-oxo-pyrrolidino)methyl]-urea], for which the responders at 100 µM, 100 µmol/kg in data set [4] (setting [9]) was 50%. Besides, the minimal effective dose stood at 10 µmol/kg in data set [2] (setting [7]) and 3.1 mg/kg in data set [2] (setting [8]). Moreover, in data set [3], the “Dose mM/kg - mouse” value was more than 3 mM/kg. The “Dose mg/kg” value in data set [3] is recorded as 930 mg/kg.
As to `CC(NC(=O)NC(C)N1CCCC1=O)N1CCCC1=O` (stereo not shown) [Compound No. 11, 1,3-bis[1-(2-oxo-pyrrolidino)ethyl]-urea], the responders at 32 µM, 32 µmol/kg in data set [4] (mice, intraperitoneal, 0.032 mM/kg, one hour before the curarizer, control animals 3/20 (compound 1), 1/10 (compound 11)) came out at 70%. The minimal effective dose in data set [2] (setting [7]) came to 0.005 µmol/kg. In addition, the minimal effective dose in data set [2] (setting [8]) is 0.0014 mg/kg. Also, in data set [3], the “Dose mM/kg - mouse” value was more than 3 mM/kg and the “Dose mg/kg” value was more than 846 mg/kg.
`O=C(NCN1CCCC1=O)NCN1CCCC1=O` [Compound No. 1, 1,3-bis[(2-oxo-pyrrolidino)methyl]-urea]: the minimal effective dose in data set [1] (setting [10]) is 100 µmol/kg; in data set [1] (setting [11]), 25 mg/kg; in data set [2] (setting [7]), 0.01 µmol/kg; in data set [2] (setting [8]), 0.0025 mg/kg. For the same molecule, in data set [1] (ip, 35 min, rat, intraperitoneal, 0.1 mM/kg (25.0 mg/kg), read-out: Number of animals which responded positively to the test, in relation to the number of animals tested (converted)), the responders at 100 µM, 25 mg/kg is 63.6%. Besides, the “activity relative to piracetam (spinal fixation time)” value in data set [1] (rat, intraperitoneal) is recorded as “more active than piracetam”. In data set [4], the responders at 32 µM, 32 µmol/kg is 70%. In addition, the responders at 100 µM, 100 µmol/kg in data set [4] was 60%. For the same molecule, the responders at 2.5 mg/kg in data set [4] is 33.3%. The LD50 was more than 5600 mg/kg in data set [5] (setting [12]), more than 22000 µmol/kg in data set [5] (setting [13]), more than 10000 mg/kg in data set [5] (setting [14]) and more than 39000 µmol/kg in data set [5] (setting [15]). The “Dose mM/kg - mouse” value in data set [3] is reported as more than 6 mM/kg. Further, the “Dose mg/kg” value in data set [3] is more than 1530 mg/kg.
Regarding `NC(=O)CN1CCCC1=O` [piracetam, 2-oxo-1-pyrrolidineacetamide, reference compound], the responders at 320 µM, 320 µmol/kg in data set [1] (Rattus norvegicus, ip, 35 min, read-out: Number of animals which responded positively to the test, in relation to the number of animals tested) is 55.6%; in data set [4], 10%. The minimal effective dose in data set [1] (setting [10]) was determined as 320 µmol/kg; in data set [1] (setting [11]), 45 mg/kg; in data set [2] (Rattus norvegicus, 24 h, read-out: Active dose mM/kg (minimum dose lowering the stimulus below 11 graduations; mM = millimole)), 2.5 µmol/kg; in data set [2] (Rattus norvegicus, 24 h, read-out: Active dose mg/kg (minimum dose lowering the stimulus below 11 graduations)) it was 3.5 mg/kg. The responders at 142 mg/kg in data set [4] came to 40%. Besides, in data set [4] (mice, intraperitoneal, 454 mg/kg (3.2 mM/kg), one hour before the curarizer, control animals 1/10), the responders at 454 mg/kg is 80%. The LD50 was more than 8000 mg/kg in data set [5] (setting [12]), more than 56000 µmol/kg in data set [5] (setting [13]), more than 10000 mg/kg in data set [5] (setting [14]) and more than 70000 µmol/kg in data set [5] (setting [15]). For the same molecule, the degree of retention entry in data set [2] (rat, compared with control animals) is “significant degree of retention”.
As for `O=C(NCCCN1CCCC1=O)NCCCN1CCCC1=O` [compound 23, 1,3-bis[3-(2-oxo-pyrrolidino)propyl]-urea], the responders at 320 µM, 320 µmol/kg in data set [1] (setting [6]) is 50%. Also, in data set [3], the “Dose mM/kg - mouse” value was more than 3 mM/kg and the “Dose mg/kg” value is listed as 931.2 mg/kg.
`O=C(NCCN1CCCC1=O)NCCN1CCCC1=O` [compound 20, 1,3-bis[2-(2-oxo-pyrrolidino)ethyl]-urea]: the responders at 320 µM, 320 µmol/kg in data set [1] (setting [6]) is 42.9%. The minimal effective dose in data set [2] (setting [7]) stood at 0.05 µmol/kg. Also, the minimal effective dose in data set [2] (setting [8]) was found to be 0.014 mg/kg. In data set [3], the “Dose mM/kg - mouse” value was more than 3 mM/kg and the “Dose mg/kg” value is more than 846 mg/kg.
`CC1CC(C)(C)N(CNC(=O)NCN2C(=O)C(C)CC2(C)C)C1=O` (stereo not shown) [compound 18, 1,3-bis[(3,5,5-trimethyl-2-oxo-pyrrolidino)methyl]-urea]: the responders at 100 µM, 100 µmol/kg in data set [4] (setting [9]) was 20%. The responders at 320 µM, 320 µmol/kg in data set [4] (mice, intraperitoneal, 0.32 mM/kg, one hour before the curarizer, control animals 1/10 (18), 2/10 (28), 0/10 (32, piracetam)) is 60%. Also, in data set [3], the “Dose mM/kg - mouse” value was 2 mM/kg and the “Dose mg/kg” value came out at 676.8 mg/kg.
As for `O=C1CCC(c2ccc(Cl)cc2)CN1CNC(=S)NCN1CC(c2ccc(Cl)cc2)CCC1=O` (stereo not shown) [compound 24, 1,3-bis[(5-p-chlorophenyl-2-oxo-piperidino)methyl]-2-thiourea], the responders at 320 µM, 320 µmol/kg in data set [1] (setting [6]) was 42.9%. For the same molecule, in data set [3], the “Dose mM/kg - mouse” value is given as more than 3 mM/kg and the “Dose mg/kg” value is reported as more than 1039 mg/kg.
With `CC1CCC(=O)N1CNC(=O)NCN1C(=O)CCC1C` (stereo not shown) [Compound No. 8, 1,3-bis[(5-methyl-2-oxo-pyrrolidino)methyl]-urea], the responders at 320 µM, 320 µmol/kg in data set [1] (setting [6]) was 57.1%. Besides, the minimal effective dose in data set [2] (setting [7]) amounted to 5 µmol/kg. Moreover, in data set [2] (setting [8]), the minimal effective dose was determined as 1.41 mg/kg. In data set [3], the “Dose mM/kg - mouse” value is listed as more than 3 mM/kg and the “Dose mg/kg” value is recorded as more than 746 mg/kg.
For `CC1C(=O)N(CNC(=O)NCN2CC(c3ccc(Cl)cc3)C(C)C2=O)CC1c1ccc(Cl)cc1` (stereo not shown) [Compound No. 7, 1,3-bis[(4-p-chlorophenyl-3-methyl-2-oxo-pyrrolidino)methyl]-urea], the responders at 320 µM, 320 µmol/kg in data set [1] (setting [6]) is 66.7%. Besides, in data set [2] (setting [7]), the minimal effective dose was 5 µmol/kg. Besides, the minimal effective dose in data set [2] (setting [8]) was determined as 1.01 mg/kg. Further, in data set [3], the “Dose mM/kg - mouse” value is more than 3 mM/kg and the “Dose mg/kg” value was more than 1509 mg/kg.
